These results are taken from US8835498B2, “Anti-wrinkle agents” (Pola Chemical Industries Inc., priority 2008, dated 2014).

The structures appear in SMILES notation.

This assay has as its system hairless mice. As to the kind of experiment: Evaluation of wrinkle-reducing effect using photoaging model (UVB-irradiated hairless mice, replica wrinkle score). Format: in vivo. The following applies: 0.5% by mass in ethanol (lotion), 100 μL once a day for 8 weeks on dorsal portions after 10 weeks of UVB irradiation; replicas scored visually 1 to 6; vs ethanol control. The method, then:
A wrinkle-reducing effect of Cosmetic 1 above was evaluated in a test using a photoaging model.
A total of ten hairless mice, which were six-week-old at the time of the start of a test, were used and divided into two groups each consisting of five mice, i.e., a control group (ethanol solvent administration group) and a sample administration group. The dorsal portions of the hairless mice were irradiated with UVB at a frequency of once a day and three times a week for 10 consecutive weeks to induce photoaging. The UVB irradiation amount was set to 50 mJ/cm^2 for the first week and to 100 mJ/cm^2 on week 2 or later.
In the sample administration group, Cosmetic 1 above was administered to the dorsal portions of the hairless mice. Cosmetic 1 started to be administered to the dorsal portions of the hairless mice on the following day after the completion of the UVB irradiation for 10 weeks, and administered at a dose of 100 μL once a day for 8 weeks. In the control group, the same treatments were performed as those in sample administration group except that ethanol was administered in place of Cosmetic 1 (Lotion 1) in Table 1. […] The scoring operation was performed by three measurers separately and evaluated visually with scores of 1 to 6 at intervals of 0.5. An average value of the results was calculated.

As to `CSCC(NC(=O)c1ccc(C)cc1)C(=O)O` (stereo not shown) [Compound 2, [S-methyl-N-toluyl]cysteine], the “wrinkle-reducing effect (wrinkle score)” value was “excellent wrinkle-reducing effects”.
